Results taken from the Biogen ADME set (Fang et al. 2023).
Converted amounts (≈) assume the structure as drawn.

Conditions: for aqueous solubility: pH 6.8

SMILES	MDR1-MDCK efflux ratio	intrinsic clearance, human liver microsomes	intrinsic clearance, rat liver microsomes	aqueous solubility	fraction unbound, human plasma	fraction unbound, rat plasma
CN[C@@H](C)C(=O)N[C@H](C(=O)N1CCC[C@H]1C(=O)Nc1snnc1-c1ccccc1)C1CCCCC1	47.8	–	–	–	–	–
CCc1nc(CC)n(Cc2nc(C)cs2)n1	0.797	≤ 4.74 mL/min/kg	39.8 mL/min/kg	35.9 µg/mL (≈ 152 µM)	–	–
O=C1NCCCCC1NC(=O)N1CCc2sccc2C1 (configuration not stated)	4.48	4.84 mL/min/kg	47 mL/min/kg	49.6 µg/mL (≈ 169 µM)	–	–
O=C(CC1CCNCC1)NCCc1ccccc1F	8.79	≤ 4.74 mL/min/kg	21.9 mL/min/kg	58.5 µg/mL (≈ 221 µM)	–	–
Cc1oc2ccccc2c1CNc1nnc(-c2ccncc2)o1	1.02	33.4 mL/min/kg	141 mL/min/kg	–	0.0522	0.00672
COc1cccc(C(=O)N(C)CC(F)(F)F)c1OCCCN	30.1	≤ 4.74 mL/min/kg	82.1 mL/min/kg	–	–	–
COc1ccc2nc(C)c(C(=O)Nc3ccccc3N3CCCC3)cc2c1	0.484	182 mL/min/kg	985 mL/min/kg	8.4 µg/mL (≈ 23.2 µM)	–	–
NC(CO)(CO)CCc1ccc(Sc2cccc(OCc3ccccc3)c2)cc1Cl	–	6.33 mL/min/kg	14.2 mL/min/kg	–	–	–
c1ccc(OCCN2CCN(c3ncccn3)CC2)cc1	0.534	126 mL/min/kg	516 mL/min/kg	–	–	–
CN(Cc1ccc(N)nc1)c1ncccn1	0.62	≤ 4.74 mL/min/kg	22.8 mL/min/kg	28.5 µg/mL (≈ 132 µM)	–	–
CN(CC(=O)N(C)C)Cc1cc(C#N)ccc1F	0.713	≤ 4.74 mL/min/kg	38.1 mL/min/kg	35.4 µg/mL (≈ 142 µM)	–	–
O=C(NCCN1C(=O)CSC1=O)c1cc(Cl)c2c(c1)OCO2	2.69	13 mL/min/kg	83 mL/min/kg	39.6 µg/mL (≈ 116 µM)	–	–
O=C(CN1CCSC1=O)N1CCN(Cc2sc3ccccc3c2Cl)CC1	–	72.7 mL/min/kg	349 mL/min/kg	54.4 µg/mL (≈ 133 µM)	–	–
COc1ccc(-c2nc(NC(C)C)ncc2-c2ncc[nH]2)cc1	6.39	26.8 mL/min/kg	1160 mL/min/kg	–	–	–
COc1ccc2nc(NCc3cnn(C)c3)ccc2c1	0.532	28.5 mL/min/kg	88.6 mL/min/kg	34.8 µg/mL (≈ 130 µM)	–	–
COCC(=O)N1CCN2C(=O)NC[C@H]2C1	–	–	–	38.4 µg/mL (≈ 180 µM)	–	–
CCCn1c(=O)n(Cc2ccc(C#N)cc2F)c2ccccc21	0.638	53.8 mL/min/kg	632 mL/min/kg	14.7 µg/mL (≈ 47.6 µM)	–	–
Cc1cccc2cc(C(=O)NCCSc3nccn3C)n(C)c12	–	180 mL/min/kg	727 mL/min/kg	33.5 µg/mL (≈ 102 µM)	–	–
CC1CC(N)CCN1C(=O)c1cc(N2CCNC2=O)c(F)cc1F (configuration not stated)	1.32	≤ 4.74 mL/min/kg	–	–	0.682	–
c1ccc(-c2noc(NC3CC3)n2)cc1	0.809	83.2 mL/min/kg	178 mL/min/kg	28.3 µg/mL (≈ 141 µM)	–	–
O=C(/C=C/N1C[C@H]2C[C@@H]1CN2c1ccccn1)c1ccccc1O	0.976	–	–	42 µg/mL (≈ 131 µM)	–	–
Cc1cc(CN(C)C(=O)C(=O)Nc2ccc(F)c(C)c2)no1	–	13.7 mL/min/kg	270 mL/min/kg	–	–	–

SMILES	MDR1-MDCK efflux ratio	intrinsic clearance, human liver microsomes	intrinsic clearance, rat liver microsomes	aqueous solubility	fraction unbound, human plasma	fraction unbound, rat plasma
Fc1ccc(F)c(-c2nc(C3CCOCC3)nn2-c2cccnc2)c1	1.33	≤ 4.74 mL/min/kg	72.8 mL/min/kg	35.1 µg/mL (≈ 103 µM)	–	–
CN(C)c1cc(CNC(=O)C2CCOCC2)ccn1	4.87	≤ 4.74 mL/min/kg	≤ 10.7 mL/min/kg	41.2 µg/mL (≈ 156 µM)	–	–
CC(c1nnc(-c2cccs2)o1)N1CCC(n2c(=O)[nH]c3ccccc32)CC1 (configuration not stated)	21.1	18.1 mL/min/kg	273 mL/min/kg	56.9 µg/mL (≈ 144 µM)	–	–
O=C(Nc1nc2ccccc2[nH]1)c1cc(Cl)ccc1Cl	–	–	–	0.55 µg/mL (≈ 1.8 µM)	–	–
CNC(=O)c1cccc(Oc2ncnc3c2CN(C)CC3)c1	19.2	≤ 4.74 mL/min/kg	≤ 10.7 mL/min/kg	46.9 µg/mL (≈ 157 µM)	–	–
Cc1cc(C(=O)N(C)Cc2ccccc2C)[nH]n1	–	≤ 4.74 mL/min/kg	239 mL/min/kg	–	–	–
Cc1ccc2c(c1)cc(CNCCc1ccccc1)c1nnnn12	0.45	417 mL/min/kg	1770 mL/min/kg	24.9 µg/mL (≈ 78.5 µM)	–	–
COc1ccc2c(c1)CN(c1nc(C)cc(C)n1)CC2	–	129 mL/min/kg	484 mL/min/kg	10.1 µg/mL (≈ 37.5 µM)	–	–
O=C(Cc1ccc(Cl)c(Cl)c1)N1CC(n2ccnn2)C1	2.09	≤ 4.74 mL/min/kg	51.8 mL/min/kg	31 µg/mL (≈ 99.7 µM)	–	–
CCC(=O)N1CCN(c2ccc(Cl)cc2NC(=O)COc2ccccc2)CC1	0.871	88.4 mL/min/kg	1840 mL/min/kg	–	0.0178	–
Clc1ccc(C2(c3ccc(-c4cn[nH]c4)cc3)CCNCC2)cc1	99	≤ 4.74 mL/min/kg	≤ 10.7 mL/min/kg	18.5 µg/mL (≈ 54.8 µM)	–	–
O=C(Nc1nc2ccccc2[nH]1)c1ccncc1	1.24	≤ 4.74 mL/min/kg	109 mL/min/kg	5.09 µg/mL (≈ 21.4 µM)	–	–
C#CCN1CCN(Cc2nc(O)cc(C(F)(F)F)n2)CC1	–	≤ 4.74 mL/min/kg	≤ 10.7 mL/min/kg	42.9 µg/mL (≈ 143 µM)	–	–
O=C1CCC(=O)N1CCSc1ncc(-c2ccc(F)cc2)[nH]1	2.4	35.6 mL/min/kg	717 mL/min/kg	–	–	–
O=C(Nc1cnc2ccccc2n1)c1ccncc1	0.578	6.67 mL/min/kg	127 mL/min/kg	–	–	–
Fc1cccc(Oc2nnnn2-c2ccccc2)c1	–	–	–	13.1 µg/mL (≈ 51 µM)	–	–
c1ccc(-c2ccc(CN3CCCCCCC3)cc2)cc1	0.675	39.5 mL/min/kg	1530 mL/min/kg	9.5 µg/mL (≈ 34 µM)	0.00243	–
c1ccc2nc(NCCn3ccnc3)cnc2c1	3.5	8.75 mL/min/kg	441 mL/min/kg	–	–	–
COc1ncc(-c2cccc(N(C)C)c2)c(OC)n1	–	193 mL/min/kg	2230 mL/min/kg	24.9 µg/mL (≈ 96 µM)	–	–
Cc1cc(F)c(C(=O)Nc2cccc(-c3nncn3C(C)C)n2)cc1-n1cnc(C2CC2)c1	–	–	–	64.8 µg/mL (≈ 145 µM)	–	–
c1ccc(-c2noc(C3CCNCC3)n2)nc1	–	≤ 4.74 mL/min/kg	≤ 10.7 mL/min/kg	–	–	–
